In publication PMC10824102, “Identification of small molecule inhibitors of G3BP-driven stress granule formation” (The Journal of Cell Biology, 2024):

Columns and labels:
[1] = system: eIF3η and PABPC1 puncta in U2OS cells; experiment: Immunofluorescence of additional stress granule markers after preincubation; format: cell-based; conditions: 50 μM pretreatment, 250 μM NaAsO2 for 30 min
Experimental: U2OS cells or U2OS cells stably expressing G3BP1-GFP were seeded in four-well Lab-Tek II Chambered Coverglass (1055360; Thermo Fisher Scientific). For preincubation experiments, cells were treated with 50 μM G3I compound for 20 min or 24 h, followed by 250 μM NaAsO2 and 50 μM G3I compound for 30 min. For posttreatment, cells were treated with 250 μM NaAsO2 for 30 min, followed by treatment with 250 μM NaAsO2 and 50 μM G3I compound for 5 min. Cells were then washed twice with PBS and fixed with 4% PFA in PBS for 10 min. Cells were then washed three times with PBS (5 min between each wash), permeabilized with 0.5% Triton X-100 in PBS for 10 min, and washed twice with PBS. Next, cells were blocked for 1 h with 3% BSA in PBS at room temperature, followed by incubation with primary antibodies diluted in 3% BSA overnight at 4°C. Cells were then washed three times with PBS (5 min between each wash) and incubated with secondary antibodies and Hoechst diluted in 3% BSA at room temperature for 1 h. Cells were then washed three times with PBS (5 min between each wash) and imaged. […]

[2] = system: TDP-43 localization to stress granules in CRISPR-modified U2OS cells; experiment: Live imaging of GFP-TDP-43 and mRuby3-G3BP1 in CRISPR-modified U2OS cells; format: cell-based; conditions: 50 μM pretreatment, 250 μM NaAsO2 for 30 min
Experimental: For preincubation of compounds, U2OS or HeLa cells stably expressing G3BP1-GFP or CRISPR-modified cells expressing TDP-43-GFP/G3BP1-GFP were seeded into eight-well Lab-Tek chambered cover glass (Nunc). At least 20 min prior to the experiment, 1 ml FluoroBrite DMEM media (Gibco) supplemented with 10% FBS and 4 mM L-glutamine was combined with 0.1% DMSO or G3I compound (5, 10, or 50 μM). This solution was vortexed for 5 s, added to the cells at 250 μl per well, and left to incubate on the microscope for 20 min. Conditions were maintained at 37°C and 5% CO2 using a Bold Line Cage Incubator (Okolab) and an objective heater (Bioptechs). During this incubation time, 5 xy fields were stored per condition, with each field having ∼20–30 cells within it. After the 20-min incubation, 250 μl of 500 μM or 1 mM (2×) sodium arsenite (Sigma-Aldrich) diluted in the FluoroBrite media with an appropriate amount of G3I compound or DMSO was added to the sample. Imaging began immediately after, with images at each xy field being taken every 1 min. For heat shock experiments, U2OS G3BP1-GFP-expressing cells were seeded into a 35-mm glass bottom dish (MatTek). Prior to the experiment, 1.5 ml FluoroBrite DMEM media (Gibco) supplemented with 10% FBS and 4 mM L-glutamine was combined with 0.1% DMSO or 50 μM G3I compound. The sample was incubated on the environmentally controlled microscope for 20 min. […]

Compound	eIF3η and PABPC1 puncta [1]	TDP-43 localization to stress granules [2]
CC(NC(=O)C(NC(=O)C(NC(=O)CCC(C)(C)C)C(C)(C)O)C(C)c1ccccc1)C(=O)N1CCCC1c1ccccc1 (stereo not shown) [G3Ib]	reduced eIF3η and PABPC1 puncta	not
CC(NC(=O)C(NC(=O)C(NC(=O)CCC(C)(C)C)C(C)(C)O)C(C)c1ccccc1)C(=O)N1CCCC1c1ccccc1 (stereo not shown) [G3Ib′]		a small proportion of TDP-43 localized to stress granules
COCCC(NC(=O)C(C)NC(=O)C(NC(=O)C(NC(=O)C(F)CC(C)(C)C)C(C)(C)O)C(C)c1ccccc1)C(=O)N(C)Cc1ccccc1 (stereo not shown) [G3Ia]	reduced eIF3η and PABPC1 puncta	
